Values after ≈ are worked out from the molar mass of the structure shown. Where two headings read alike, the source gives them in different places.
What was measured:
C. difficile = assay: MIC by broth microdilution against C. difficile strains; type: cell-based, Clostridioides difficile; settings: for MIC: Clostridioides difficile; for Selectivity: MIC MRSA/MIC C. difficile, Table 3
MRSA (NRS70, NRS119) = assay: MIC against MRSA strains; type: cell-based, Staphylococcus aureus; settings: for MIC: Staphylococcus aureus
[1] = ATCC43255, ATCC 43255, ribotype 087, Table 3 (SAR^2 and SAR^3), read-out: MIC C. difficile
[2] = NRS70 strain, Table 3 (SAR^2 and SAR^3), read-out: MIC MRSA
[3] = ATCC43255, C. difficile ATCC43255, FIG. 2 legend, read-out: MIC of positive controls
[4] = ATCC43255, ATCC 43255, ribotype 087, Table 2 (SAR^1), read-out: MIC C. difficile
[5] = ATCC43255, C. difficile ATCC 43255, read-out: MIC against C. difficile
[6] = MRSA strain NRS70, read-out: MIC against MRSA
[7] = NRS70 strain, Table 2 (SAR^1), read-out: MIC MRSA

Compound | MIC (C. difficile; [1]) | MIC (MRSA (NRS70, NRS119); [2]) | Selectivity (C. difficile) | other results
O=C(Nc1ncco1)c1cncc(-c2ccc(F)c(F)c2)c1 [Compound 82, 5-(3,4-Difluorophenyl)-N-(oxazol-2-yl)nicotinamide] | 4 µg/mL (≈ 13.3 µM) | 8 µg/mL (≈ 26.6 µM) | 2 | 
CO[C@H]1/C=C/O[C@@]2(C)Oc3c(C)c(O)c4c(O)c(c5c(nc6cc(C)ccn65)c4c3C2=O)NC(=O)/C(C)=C\C=C\[C@H](C)[C@H](O)[C@@H](C)[C@@H](O)[C@@H](C)[C@H](OC(C)=O)[C@@H]1C [rifaximin, reference compound] |  |  |  | MIC (C. difficile; [3]): 0.03 µg/mL
O=C(Nc1ncco1)c1cc(-c2ccc(F)c(Cl)c2)ncc1F [Compound 73, 2-(3-Chloro-4-fluorophenyl)-5-fluoro-N-(oxazol-2-yl)isonicotinamide] | 0.5 µg/mL (≈ 1.49 µM) | 2 µg/mL (≈ 5.96 µM) | 4 | 
O=C(Nc1ncco1)c1cncc(-c2ccc(F)c(Cl)c2)c1 [Compound 81, 5-(3-Chloro-4-fluorophenyl)-N-(oxazol-2-yl)nicotinamide] | 2 µg/mL (≈ 6.3 µM) | 8 µg/mL (≈ 25.2 µM) | 4 | 
CC(C)(C)OC(=O)NCCCCCCOC(=O)c1cnc(NC(=O)c2ccnc(-c3ccc(Cl)c(Cl)c3)c2)o1 [Compound 27, 6-((Tert-butoxycarbonyl)amino)hexyl 2-(2-(3,4-dichlorophenyl)isonicotinamido) oxazole-5-carboxylate] |  |  |  | MIC C. difficile (C. difficile; ATCC 43255, ribotype 087, Table 2 (SAR^1)): 8 µg/mL (≈ 13.9 µM); MIC MRSA (MRSA (NRS70, NRS119); NRS70 strain, Table 2 (SAR^1)): 16 µg/mL (≈ 27.7 µM)
CNC(=O)c1ccnc(-c2ccc(Cl)c(Cl)c2)c1 [Compound 20, 2-(3,4-Dichlorophenyl)-N-methylisonicotinamide] |  |  |  | MIC (C. difficile; [4]): 64 µg/mL (≈ 228 µM); MIC (C. difficile; [5]): ≥ 64 µg/mL; MIC (MRSA (NRS70, NRS119); [6]): ≥ 64 µg/mL; MIC (MRSA (NRS70, NRS119); [7]): ≥ 256 µg/mL
O=C(Nc1ncc[nH]1)c1ccnc(-c2ccc(Cl)c(Cl)c2)c1 [Compound 17, 2-(3,4-Dichlorophenyl)-N-(1H-imidazol-2-yl)isonicotinamide] |  |  |  | MIC (C. difficile; [4]): ≥ 128 µg/mL; MIC (C. difficile; [5]): ≥ 64 µg/mL; MIC (MRSA (NRS70, NRS119); [6]): ≥ 64 µg/mL; MIC (MRSA (NRS70, NRS119); [7]): ≥ 256 µg/mL
Cl.Cl.O=C(Nc1ncc(C(=O)N2CCNCC2)o1)c1ccnc(-c2ccc(Cl)c(Cl)c2)c1 [Compound 31, 2-(3,4-Dichlorophenyl)-N-(5-(piperazine-1-carbonyl)oxazol-2-yl)isonicotinamide dihydrochloride] |  |  |  | MIC (C. difficile; [4]): 8 µg/mL; MIC (MRSA (NRS70, NRS119); [7]): 16 µg/mL
O=C(Nc1nc2ncccc2o1)c1ccnc(-c2ccc(Cl)c(Cl)c2)c1 [Compound 22, 2-(3,4-Dichlorophenyl)-N-(oxazolo[4,5-b]pyridin-2-yl)isonicotinamide] |  |  |  | MIC (C. difficile; [4]): 0.0625 µg/mL (≈ 0.162 µM); MIC (MRSA (NRS70, NRS119); [7]): 0.25 µg/mL (≈ 0.649 µM)
O=C(Nc1ncc(C(=O)OCCCCCCO)o1)c1ccnc(-c2ccc(Cl)c(Cl)c2)c1 [Compound 26, 6-Hydroxyhexyl 2-(2-(3,4-dichlorophenyl)isonicotinamido)oxazole-5-carboxylate] |  |  |  | MIC (C. difficile; [4]): 0.25 µg/mL (≈ 0.523 µM); MIC (MRSA (NRS70, NRS119); [7]): 0.25 µg/mL (≈ 0.523 µM)
O=C(Nc1ncco1)c1ccnc(OCCC(F)(F)F)c1 [Compound 65, N-(Oxazol-2-yl)-2-(3,3,3-trifluoropropoxy)isonicotinamide] | 4 µg/mL (≈ 13.3 µM) | 8 µg/mL (≈ 26.6 µM) | 2 | 
CC(C)(C)OC(=O)Nc1ccc(-c2cc(C(=O)Nc3ncco3)ccn2)cc1 [Compound 58, Tert-butyl (4-(4-(oxazol-2-ylcarbamoyl)pyridin-2-yl)phenyl)carbamate] | 8 µg/mL (≈ 21 µM) | 8 µg/mL (≈ 21 µM) | 1 | 
CC(C)(C)OC(=O)Nc1cccc(-c2cc(C(=O)Nc3ncco3)ccn2)c1 [Compound 59, Tert-butyl (3-(4-(oxazol-2-ylcarbamoyl)pyridin-2-yl)phenyl)carbamate] | 8 µg/mL (≈ 21 µM) | 4 µg/mL (≈ 10.5 µM) | 0.5 | 
COc1ccc(-c2cc(C(=O)Nc3ncco3)ccn2)cc1OC [Compound 53, 2-(3,4-Dimethoxyphenyl)-N-(oxazol-2-yl)isonicotinamide] | 16 µg/mL (≈ 49.2 µM) | 64 µg/mL (≈ 197 µM) | 4 | 
O=C(Nc1ncco1)c1cc(-c2ccc(F)c(F)c2)ncc1F [Compound 72, 2-(3,4-Difluorophenyl)-5-fluoro-N-(oxazol-2-yl)isonicotinamide] | 0.5 µg/mL (≈ 1.57 µM) | 4 µg/mL (≈ 12.5 µM) | 8 | 
O=C(Nc1ncco1)c1cc(-c2ccc(Cl)c(F)c2)ncc1F [Compound 74, 2-(4-Chloro-3-fluorophenyl)-5-fluoro-N-(oxazol-2-yl)isonicotinamide] | 0.25 µg/mL (≈ 0.745 µM) | 2 µg/mL (≈ 5.96 µM) | 8 | 
O=C(Nc1ncc(C(=O)N2CCOCC2)o1)c1ccnc(-c2ccc(Cl)c(Cl)c2)c1 [Compound 29, 2-(3,4-Dichlorophenyl)-N-(5-(morpholine-4-carbonyl)oxazol-2-yl)isonicotinamide] |  |  |  | MIC (C. difficile; [4]): 0.125 µg/mL (≈ 0.279 µM); MIC (MRSA (NRS70, NRS119); [7]): 2 µg/mL (≈ 4.47 µM)
CCOC(=O)c1cnc(NC(=O)c2ccnc(-c3ccc(Cl)c(Cl)c3)c2)o1 [Compound 23, Ethyl 2-(2-(3,4-dichlorophenyl)isonicotinamido)oxazole-5-carboxylate] |  |  |  | MIC (C. difficile; [4]): 0.0625 µg/mL (≈ 0.154 µM); MIC (MRSA (NRS70, NRS119); [7]): 0.06 µg/mL (≈ 0.148 µM)
COc1ccc(-c2cc(C(=O)Nc3ncco3)ccn2)cc1Cl [Compound 54, 2-(3-Chloro-4-methoxyphenyl)-N-(oxazol-2-yl)isonicotinamide] | 0.5 µg/mL (≈ 1.52 µM) | 1 µg/mL (≈ 3.03 µM) | 2 | 
C#CCCCCCOC(=O)c1cnc(NC(=O)c2ccnc(-c3ccc(Cl)c(Cl)c3)c2)o1 [Compound 25, Hept-6-yn-1-yl 2-(2-(3,4-dichlorophenyl)isonicotinamido)oxazole-5-carboxylate] |  |  |  | MIC (C. difficile; [4]): 0.25 µg/mL (≈ 0.529 µM); MIC (MRSA (NRS70, NRS119); [7]): 0.06 µg/mL (≈ 0.127 µM)
O=C(Nc1ccon1)c1ccnc(-c2ccc(Cl)c(Cl)c2)c1 [Compound 18, 2-(3,4-Dichlorophenyl)-N-(isoxazol-3-yl)isonicotinamide] |  |  |  | MIC (C. difficile; [4]): ≥ 128 µg/mL; MIC (C. difficile; [5]): ≥ 64 µg/mL; MIC (MRSA (NRS70, NRS119); [6]): ≥ 64 µg/mL; MIC (MRSA (NRS70, NRS119); [7]): ≥ 256 µg/mL
CC(=O)NC[C@H]1CN(c2ccc(N3CCOCC3)c(F)c2)C(=O)O1 [linezolid, reference compound] |  |  |  | MIC (C. difficile; [3]): 2 µg/mL
O=C(Nc1ncco1)c1ccnc(-c2cc(F)cc(F)c2)c1 [Compound 42, 2-(3,5-Difluorophenyl)-N-(oxazol-2-yl)isonicotinamide] | 0.5 µg/mL (≈ 1.66 µM) | 8 µg/mL (≈ 26.6 µM) | 16 | 

Second part, led by results:

MIC (C. difficile; [1]) | MIC (MRSA (NRS70, NRS119); [2]) | Compound | Selectivity (C. difficile) | other results
8 µg/mL (≈ 23.9 µM) | 4 µg/mL (≈ 11.9 µM) | O=C(Nc1ncco1)c1cncc(-c2ccc(Cl)c(Cl)c2)n1 [Compound 86, 6-(3,4-Dichlorophenyl)-N-(oxazol-2-yl)pyrazine-2-carboxamide] | 0.5 | 
≥ 16 µg/mL | 2 µg/mL (≈ 5.99 µM) | O=C(Nc1ncco1)c1cccc(-c2ccc(Cl)c(Cl)c2)n1 [Compound 75, 6-(3,4-Dichlorophenyl)-N-(oxazol-2-yl)picolinamide] | ≤ 0.125 | 
4 µg/mL (≈ 13.8 µM) | 32 µg/mL (≈ 110 µM) | N#Cc1cccc(-c2cc(C(=O)Nc3ncco3)ccn2)c1 [Compound 55, 2-(3-Cyanophenyl)-N-(oxazol-2-yl)isonicotinamide] | 8 | 
≥ 16 µg/mL | 64 µg/mL (≈ 212 µM) | O=C(Nc1ncco1)c1cccc(-c2ccc(F)c(F)c2)n1 [Compound 80, 6-(3,4-Difluorophenyl)-N-(oxazol-2-yl)picolinamide] | ≤ 4 | 
4 µg/mL (≈ 14.1 µM) | 1 µg/mL (≈ 3.53 µM) | O=C(Nc1ncco1)c1ccnc(-c2ccccc2F)c1 [Compound 38, 2-(2-Fluorophenyl)-N-(oxazol-2-yl)isonicotinamide] | 0.25 | 
2 µg/mL (≈ 5.98 µM) | 2 µg/mL (≈ 5.98 µM) | O=C(Nc1ncco1)c1ccnc(-c2cccc(C(F)(F)F)c2)n1 [Compound 85, N-(Oxazol-2-yl)-2-(3-(trifluoromethyl)phenyl)pyrimidine-4-carboxamide] | 1 | 
2 µg/mL (≈ 6.45 µM) | ≥ 256 µg/mL | O=C(Nc1ncco1)c1ccnc(-c2cccc([N+](=O)[O-])c2)c1 [Compound 50, 2-(3-Nitrophenyl)-N-(oxazol-2-yl)isonicotinamide] | ≥128 | 
1 µg/mL (≈ 2.98 µM) | 1 µg/mL (≈ 2.98 µM) | O=C(Nc1ncco1)c1ccnc(-c2ccc(F)c(Cl)c2)c1F [Compound 67, 2-(3-Chloro-4-fluorophenyl)-3-fluoro-N-(oxazol-2-yl)isonicotinamide] | 1 | 
1 µg/mL (≈ 3.15 µM) | 2 µg/mL (≈ 6.3 µM) | O=C(Nc1ncco1)c1ccnc(-c2cccc(Cl)c2)c1F [Compound 69, 2-(3-Chlorophenyl)-3-fluoro-N-(oxazol-2-yl)isonicotinamide] | 2 | 
1 µg/mL (≈ 2.98 µM) | 0.5 µg/mL (≈ 1.49 µM) | O=C(Nc1ncco1)c1ccnc(-c2ccc(Cl)c(Cl)c2)n1 [Compound 83, 2-(3,4-Dichlorophenyl)-N-(oxazol-2-yl)pyrimidine-4-carboxamide] | 0.5 | 
≥ 16 µg/mL | 32 µg/mL (≈ 113 µM) | O=C(Nc1ncco1)c1cccc(-c2ccc(F)cc2)n1 [Compound 79, 6-(4-Fluorophenyl)-N-(oxazol-2-yl)picolinamide] | ≤ 2 | 
4 µg/mL (≈ 13.3 µM) | 4 µg/mL (≈ 13.3 µM) | O=C(Nc1ncco1)c1ccnc(-c2cccc(Cl)c2)n1 [Compound 84, 2-(3-Chlorophenyl)-N-(oxazol-2-yl)pyrimidine-4-carboxamide] | 1 | 
8 µg/mL (≈ 25.2 µM) | 8 µg/mL (≈ 25.2 µM) | O=C(Nc1ncco1)c1cccc(-c2ccc(F)c(Cl)c2)n1 [Compound 77, 6-(3-Chloro-4-fluorophenyl)-N-(oxazol-2-yl)picolinamide] | 1 | 
2 µg/mL (≈ 6.19 µM) | 4 µg/mL (≈ 12.4 µM) | CC(C)Oc1ccc(-c2cc(C(=O)Nc3ncco3)ccn2)cc1 [Compound 52, 2-(4-Isopropoxyphenyl)-N-(oxazol-2-yl)isonicotinamide] | 2 | 

From patent US20230271950A1, “ANTIBACTERIAL PICOLINAMIDE COMPOUNDS” (University of Notre Dame Du Lac, priority 2020, published 2023)
